Assay results reported in PubChem BioAssay AID1963837 (Molecular Pharmacology Branch, DTP, NCI, 2024).

test system: 843126-344-R-J1-PDC complex spheroid viability; assay: Anticancer human tumor 843126-344-R-J1-PDC patient-derived melanoma cell line growth inhibition [POLQ]; details: curve of first compound; second compound 10 µM
Summary of the method: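 Complex spheroid viability model combining PDC tumour cells with endothelial (HUVEC) and MSC stromal cells. Novobiocin, ART-558 or RP6685 were tested singly and in combination with standard and investigational anticancer drugs. Each was titrated in half-log steps from near clinical Cmax, or from 10 microM where Cmax was unknown.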
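Wherever viability, T/C is given: spheroids exposed to drugs for seven days before readout.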

Which IC50 does the source give for `CCc1c2c(nc3ccc(O)cc13)-c1cc3c(c(=O)n1C2)COC(=O)[C@]3(O)CC` + Cc1cccc(N(C)C(=O)C2C(O)CCN2c2nc(C)cc(C(F)(F)F)c2C#N)c1 here?
The IC50 was over 1 µM.

For `CCCS(=O)(=O)Nc1ccc(F)c(C(=O)c2c[nH]c3ncc(-c4ccc(Cl)cc4)cc23)c1F` + COC1C(OC(N)=O)C(O)C(Oc2ccc3c(O)c(NC(=O)c4ccc(O)c(CC=C(C)C)c4)c(=O)oc3c2C)OC1(C)C, which IC50 is on record?
Its IC50 is over 10 µM.

With `COc1cc2cc(C(=O)CCC(=O)O)sc2cc1OC` + Cc1cccc(N(C)C(=O)C2C(O)CCN2c2nc(C)cc(C(F)(F)F)c2C#N)c1 as the molecule, how does the IC50 read?
Its IC50 is over 10 µM.

Which IC50 does the source give for `C=CCn1c(=O)c2cnc(Nc3ccc(N4CCN(C)CC4)cc3)nc2n1-c1cccc(C(C)(C)O)n1` + Nc1ccc(C#CCN(C(=O)Cc2ncc(C(F)(F)F)cc2C(F)(F)F)c2ccc(F)cc2)nn1 here?
Its IC50 is over 1 µM.

Which IC50 does the source give for `Nc1ccn(C2OC(CO)C(O)C2(F)F)c(=O)n1` (configuration not stated) + Cc1cccc(N(C)C(=O)C2C(O)CCN2c2nc(C)cc(C(F)(F)F)c2C#N)c1 here?
The IC50 was under 0.0316 µM.

For `C#Cc1c(F)ccc2cc(O)cc(-c3ncc4c(N5CC6CCC(C5)N6)nc(OCC56CCCN5CC(F)C6)nc4c3F)c12` (configuration not stated) + Cc1cccc(N(C)C(=O)C2C(O)CCN2c2nc(C)cc(C(F)(F)F)c2C#N)c1, which IC50 is on record?
The IC50 was over 10 µM.

same assay, conditions: second compound 0.0316 µM; first compound 0.00316 µM; stronger effect = lower value

How did the viability, T/C turn out when `CCc1c2c(nc3ccc(O)cc13)-c1cc3c(c(=O)n1C2)COC(=O)[C@]3(O)CC` + Nc1ccc(C#CCN(C(=O)Cc2ncc(C(F)(F)F)cc2C(F)(F)F)c2ccc(F)cc2)nn1 was run?
Its viability, T/C is 68.2%.

With `CCc1c2c(nc3ccc(O)cc13)-c1cc3c(c(=O)n1C2)COC(=O)[C@]3(O)CC` + Cc1cccc(N(C)C(=O)C2C(O)CCN2c2nc(C)cc(C(F)(F)F)c2C#N)c1 as the molecule, how does the viability, T/C read?
The viability, T/C was 73%.

Which viability, T/C does the source give for `C=CCn1c(=O)c2cnc(Nc3ccc(N4CCN(C)CC4)cc3)nc2n1-c1cccc(C(C)(C)O)n1` + Nc1ccc(C#CCN(C(=O)Cc2ncc(C(F)(F)F)cc2C(F)(F)F)c2ccc(F)cc2)nn1 here?
The viability, T/C was 93.9%.

same assay, conditions: second compound 0.0316 µM; first compound 0.01 µM; stronger effect = lower value

With `CCc1c2c(nc3ccc(O)cc13)-c1cc3c(c(=O)n1C2)COC(=O)[C@]3(O)CC` + Nc1ccc(C#CCN(C(=O)Cc2ncc(C(F)(F)F)cc2C(F)(F)F)c2ccc(F)cc2)nn1 as the molecule, how does the viability, T/C read?
Its viability, T/C is 60%.

With `CCc1c2c(nc3ccc(O)cc13)-c1cc3c(c(=O)n1C2)COC(=O)[C@]3(O)CC` + Cc1cccc(N(C)C(=O)C2C(O)CCN2c2nc(C)cc(C(F)(F)F)c2C#N)c1 as the molecule, how does the viability, T/C read?
Its viability, T/C is 52.8%.

With `C=CCn1c(=O)c2cnc(Nc3ccc(N4CCN(C)CC4)cc3)nc2n1-c1cccc(C(C)(C)O)n1` + Nc1ccc(C#CCN(C(=O)Cc2ncc(C(F)(F)F)cc2C(F)(F)F)c2ccc(F)cc2)nn1 as the molecule, how does the viability, T/C read?
Its viability, T/C is 81.2%.

same assay, conditions: second compound 0.0316 µM; first compound 0.0316 µM; stronger effect = lower value

How did the viability, T/C turn out when `CCc1c2c(nc3ccc(O)cc13)-c1cc3c(c(=O)n1C2)COC(=O)[C@]3(O)CC` + Nc1ccc(C#CCN(C(=O)Cc2ncc(C(F)(F)F)cc2C(F)(F)F)c2ccc(F)cc2)nn1 was run?
Its viability, T/C is 63.9%.

Which viability, T/C does the source give for `CCc1c2c(nc3ccc(O)cc13)-c1cc3c(c(=O)n1C2)COC(=O)[C@]3(O)CC` + Cc1cccc(N(C)C(=O)C2C(O)CCN2c2nc(C)cc(C(F)(F)F)c2C#N)c1 here?
The viability, T/C was 66.4%.

For `CCCS(=O)(=O)Nc1ccc(F)c(C(=O)c2c[nH]c3ncc(-c4ccc(Cl)cc4)cc23)c1F` + COC1C(OC(N)=O)C(O)C(Oc2ccc3c(O)c(NC(=O)c4ccc(O)c(CC=C(C)C)c4)c(=O)oc3c2C)OC1(C)C, which viability, T/C is on record?
Its viability, T/C is 88.8%.

For `COc1cc2cc(C(=O)CCC(=O)O)sc2cc1OC` + Cc1cccc(N(C)C(=O)C2C(O)CCN2c2nc(C)cc(C(F)(F)F)c2C#N)c1, which viability, T/C is on record?
Its viability, T/C is 95.8%.

Which viability, T/C does the source give for `C=CCn1c(=O)c2cnc(Nc3ccc(N4CCN(C)CC4)cc3)nc2n1-c1cccc(C(C)(C)O)n1` + Nc1ccc(C#CCN(C(=O)Cc2ncc(C(F)(F)F)cc2C(F)(F)F)c2ccc(F)cc2)nn1 here?
The viability, T/C was 98.9%.

Which viability, T/C does the source give for `Nc1ccn(C2OC(CO)C(O)C2(F)F)c(=O)n1` (configuration not stated) + Cc1cccc(N(C)C(=O)C2C(O)CCN2c2nc(C)cc(C(F)(F)F)c2C#N)c1 here?
The viability, T/C was 47.1%.

Which viability, T/C does the source give for `C#Cc1c(F)ccc2cc(O)cc(-c3ncc4c(N5CC6CCC(C5)N6)nc(OCC56CCCN5CC(F)C6)nc4c3F)c12` (configuration not stated) + Cc1cccc(N(C)C(=O)C2C(O)CCN2c2nc(C)cc(C(F)(F)F)c2C#N)c1 here?
Its viability, T/C is 88%.

same assay, conditions: second compound 0.0316 µM; first compound 0.1 µM; stronger effect = lower value

For `CCc1c2c(nc3ccc(O)cc13)-c1cc3c(c(=O)n1C2)COC(=O)[C@]3(O)CC` + Nc1ccc(C#CCN(C(=O)Cc2ncc(C(F)(F)F)cc2C(F)(F)F)c2ccc(F)cc2)nn1, which viability, T/C is on record?
Its viability, T/C is 64.7%.

`CCc1c2c(nc3ccc(O)cc13)-c1cc3c(c(=O)n1C2)COC(=O)[C@]3(O)CC` + Cc1cccc(N(C)C(=O)C2C(O)CCN2c2nc(C)cc(C(F)(F)F)c2C#N)c1 was tested. Which viability, T/C did it give?
The viability, T/C was 67.3%.

Which viability, T/C does the source give for `CCCS(=O)(=O)Nc1ccc(F)c(C(=O)c2c[nH]c3ncc(-c4ccc(Cl)cc4)cc23)c1F` + COC1C(OC(N)=O)C(O)C(Oc2ccc3c(O)c(NC(=O)c4ccc(O)c(CC=C(C)C)c4)c(=O)oc3c2C)OC1(C)C here?
Its viability, T/C is 87.5%.

How did the viability, T/C turn out when `COc1cc2cc(C(=O)CCC(=O)O)sc2cc1OC` + Cc1cccc(N(C)C(=O)C2C(O)CCN2c2nc(C)cc(C(F)(F)F)c2C#N)c1 was run?
Its viability, T/C is 83.5%.

With `C=CCn1c(=O)c2cnc(Nc3ccc(N4CCN(C)CC4)cc3)nc2n1-c1cccc(C(C)(C)O)n1` + Nc1ccc(C#CCN(C(=O)Cc2ncc(C(F)(F)F)cc2C(F)(F)F)c2ccc(F)cc2)nn1 as the molecule, how does the viability, T/C read?
The viability, T/C was 110%.

How did the viability, T/C turn out when `Nc1ccn(C2OC(CO)C(O)C2(F)F)c(=O)n1` (configuration not stated) + Cc1cccc(N(C)C(=O)C2C(O)CCN2c2nc(C)cc(C(F)(F)F)c2C#N)c1 was run?
The viability, T/C was 50.2%.

How did the viability, T/C turn out when `C#Cc1c(F)ccc2cc(O)cc(-c3ncc4c(N5CC6CCC(C5)N6)nc(OCC56CCCN5CC(F)C6)nc4c3F)c12` (configuration not stated) + Cc1cccc(N(C)C(=O)C2C(O)CCN2c2nc(C)cc(C(F)(F)F)c2C#N)c1 was run?
Its viability, T/C is 81.1%.

same assay, conditions: second compound 0.0316 µM; first compound 0.316 µM; stronger effect = lower value

Which viability, T/C does the source give for `CCc1c2c(nc3ccc(O)cc13)-c1cc3c(c(=O)n1C2)COC(=O)[C@]3(O)CC` + Nc1ccc(C#CCN(C(=O)Cc2ncc(C(F)(F)F)cc2C(F)(F)F)c2ccc(F)cc2)nn1 here?
The viability, T/C was 58.8%.

How did the viability, T/C turn out when `CCc1c2c(nc3ccc(O)cc13)-c1cc3c(c(=O)n1C2)COC(=O)[C@]3(O)CC` + Cc1cccc(N(C)C(=O)C2C(O)CCN2c2nc(C)cc(C(F)(F)F)c2C#N)c1 was run?
The viability, T/C was 54.6%.

`CCCS(=O)(=O)Nc1ccc(F)c(C(=O)c2c[nH]c3ncc(-c4ccc(Cl)cc4)cc23)c1F` + COC1C(OC(N)=O)C(O)C(Oc2ccc3c(O)c(NC(=O)c4ccc(O)c(CC=C(C)C)c4)c(=O)oc3c2C)OC1(C)C was tested. Which viability, T/C did it give?
The viability, T/C was 62.7%.

Which viability, T/C does the source give for `COc1cc2cc(C(=O)CCC(=O)O)sc2cc1OC` + Cc1cccc(N(C)C(=O)C2C(O)CCN2c2nc(C)cc(C(F)(F)F)c2C#N)c1 here?
Its viability, T/C is 95.1%.

`C=CCn1c(=O)c2cnc(Nc3ccc(N4CCN(C)CC4)cc3)nc2n1-c1cccc(C(C)(C)O)n1` + Nc1ccc(C#CCN(C(=O)Cc2ncc(C(F)(F)F)cc2C(F)(F)F)c2ccc(F)cc2)nn1 was tested. Which viability, T/C did it give?
Its viability, T/C is 101%.

Which viability, T/C does the source give for `Nc1ccn(C2OC(CO)C(O)C2(F)F)c(=O)n1` (configuration not stated) + Cc1cccc(N(C)C(=O)C2C(O)CCN2c2nc(C)cc(C(F)(F)F)c2C#N)c1 here?
Its viability, T/C is 30.6%.

With `C#Cc1c(F)ccc2cc(O)cc(-c3ncc4c(N5CC6CCC(C5)N6)nc(OCC56CCCN5CC(F)C6)nc4c3F)c12` (configuration not stated) + Cc1cccc(N(C)C(=O)C2C(O)CCN2c2nc(C)cc(C(F)(F)F)c2C#N)c1 as the molecule, how does the viability, T/C read?
Its viability, T/C is 79.9%.

same assay, conditions: second compound 0.0316 µM; first compound 1 µM; stronger effect = lower value

`CCc1c2c(nc3ccc(O)cc13)-c1cc3c(c(=O)n1C2)COC(=O)[C@]3(O)CC` + Nc1ccc(C#CCN(C(=O)Cc2ncc(C(F)(F)F)cc2C(F)(F)F)c2ccc(F)cc2)nn1 was tested. Which viability, T/C did it give?
Its viability, T/C is 49.1%.

`CCc1c2c(nc3ccc(O)cc13)-c1cc3c(c(=O)n1C2)COC(=O)[C@]3(O)CC` + Cc1cccc(N(C)C(=O)C2C(O)CCN2c2nc(C)cc(C(F)(F)F)c2C#N)c1 was tested. Which viability, T/C did it give?
Its viability, T/C is 50.5%.

For `CCCS(=O)(=O)Nc1ccc(F)c(C(=O)c2c[nH]c3ncc(-c4ccc(Cl)cc4)cc23)c1F` + COC1C(OC(N)=O)C(O)C(Oc2ccc3c(O)c(NC(=O)c4ccc(O)c(CC=C(C)C)c4)c(=O)oc3c2C)OC1(C)C, which viability, T/C is on record?
The viability, T/C was 72.9%.

Which viability, T/C does the source give for `COc1cc2cc(C(=O)CCC(=O)O)sc2cc1OC` + Cc1cccc(N(C)C(=O)C2C(O)CCN2c2nc(C)cc(C(F)(F)F)c2C#N)c1 here?
Its viability, T/C is 98.8%.
